{"source": "patent US20110039721A1", "about": "“METHOD FOR PREDICTION ABOUT CARCINOGENICITY OF SUBSTANCE IN RODENT” (Chemicals Evaluation and Research Institute, priority 2007, published 2011)", "key": {"rodent": {"system": "rodent", "conditions": "cited from earlier work"}, "[1]": {"system": "mRNA expressed from the genes (A) to (D) in rat liver", "assay": "Behavior of genes (mRNA expression level, oligo-DNA microarray) in rat liver after 28-day oral administration", "type": "in vivo", "method_in_brief": "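Liver mRNA measured by oligo-DNA microarray after 28 days of once-daily oral gavage in 5-week-old male F344 rats (n=4 per group), with vehicle controls given equal solvent volume. Significance threshold: 1.5-fold up or down versus control, with changes opposite in direction to other carcinogens counted as not significant.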"}, "[2]": {"conditions": "cited from earlier work"}, "liver": {"system": "liver", "conditions": "cited from earlier work"}, "[3]": {"conditions": "gene group (A), Unigene No. Rn.167075, mRNA vs vehicle control group"}, "[4]": {"conditions": "gene group (C), Unigene No. Rn.120914, mRNA vs vehicle control group"}}, "note": "Like-named read-outs stand apart in the source and are kept apart here.", "data": [{"smiles": "CC(=O)Nc1cccc2c1-c1ccccc1C2", "note": "[TS061, 4-Acetylaminofluorene]", "values": [{"measurement": "Carcinogenicity", "setting": "rodent; classification C+/C−", "value": "C−"}, {"measurement": "Behavior of gene caused by administration of chemical substance", "setting": "[1]; Gene No. 154, Rn.185941, group (C)", "value": "−"}, {"measurement": "Behavior of gene caused by administration of chemical substance", "setting": "[1]; Gene No. 533, Rn.106184, group (C)", "value": "−"}, {"measurement": "Behavior of gene caused by administration of chemical substance", "setting": "[1]; Gene No. 725, Rn.108075, group (C)", "value": "−"}, {"measurement": "Behavior of gene caused by administration of chemical substance", "setting": "[1]; Gene No. 813, Rn.201760, group (C)", "value": "−"}, {"measurement": "Behavior of gene caused by administration of chemical substance", "setting": "[1]; Gene No. 893, Rn.164817, group (C)", "value": "−"}, {"measurement": "Behavior of gene caused by administration of chemical substance", "setting": "[1]; Gene No. 1119, Rn.9757, group (C)", "value": "−"}, {"measurement": "Behavior of gene caused by administration of chemical substance", "setting": "[1]; Gene No. 1131, Rn.144946, group (C)", "value": "−"}, {"measurement": "Behavior of gene caused by administration of chemical substance", "setting": "[1]; Gene No. 1163, Rn.11766, group (C)", "value": "+"}, {"measurement": "Behavior of gene caused by administration of chemical substance", "setting": "[1]; Gene No. 1334, Rn.120914, group (C)", "value": "−"}, {"measurement": "Behavior of gene caused by administration of chemical substance", "setting": "[1]; Gene No. 1494, Rn.1430, group (B)", "value": "−"}, {"measurement": "Behavior of gene caused by administration of chemical substance", "setting": "[1]; Gene No. 1562, Rn.14744, group (C)", "value": "−"}, {"measurement": "Behavior of gene caused by administration of chemical substance", "setting": "[1]; Gene No. 1741, Rn.1647, group (C)", "value": "−"}, {"measurement": "Behavior of gene caused by administration of chemical substance", "setting": "[1]; Gene No. 1993, Rn.18728, group (C)", "value": "−"}, {"measurement": "Behavior of gene caused by administration of chemical substance", "setting": "[1]; Gene No. 2026, Rn.167075, group (A)", "value": "+"}, {"measurement": "Behavior of gene caused by administration of chemical substance", "setting": "[1]; Gene No. 2045, Rn.19329, group (B)", "value": "−"}, {"measurement": "Behavior of gene caused by administration of chemical substance", "setting": "[1]; Gene No. 2203, Rn.21240, group (B)", "value": "−"}, {"measurement": "Behavior of gene caused by administration of chemical substance", "setting": "[1]; Gene No. 2494, Rn.23969, group (C)", "value": "−"}, {"measurement": "Behavior of gene caused by administration of chemical substance", "setting": "[1]; Gene No. 2546, Rn.24561, group (C)", "value": "−"}, {"measurement": "Behavior of gene caused by administration of chemical substance", "setting": "[1]; Gene No. 3776, Rn.43232, group (C)", "value": "−"}, {"measurement": "Behavior of gene caused by administration of chemical substance", "setting": "[1]; Gene No. 3929, Rn.4620, group (C)", "value": "−"}, {"measurement": "Behavior of gene caused by administration of chemical substance", "setting": "[1]; Gene No. 4095, Rn.119024, group (C)", "value": "−"}, {"measurement": "Behavior of gene caused by administration of chemical substance", "setting": "[1]; Gene No. 4218, Rn.167075, group (A)", "value": "−"}, {"measurement": "Behavior of gene caused by administration of chemical substance", "setting": "[1]; Gene No. 4846, Rn.144554, group (A)", "value": "+"}, {"measurement": "Behavior of gene caused by administration of chemical substance", "setting": "[1]; Gene No. 4973, Rn.118529, group (C)", "value": "−"}, {"measurement": "Behavior of gene caused by administration of chemical substance", "setting": "[1]; Gene No. 5600, Rn.9836, group (A)", "value": "−"}, {"measurement": "Behavior of gene caused by administration of chemical substance", "setting": "[1]; Gene No. 5634, Rn.9862, group (C)", "value": "−"}, {"measurement": "Behavior of gene caused by administration of chemical substance", "setting": "[1]; Gene No. 5726, Rn.9939, group (D)", "value": "−"}, {"measurement": "Behavior of gene caused by administration of chemical substance", "setting": "[1]; Gene No. 5878, Rn.143213, group (C)", "value": "−"}, {"measurement": "Behavior of gene caused by administration of chemical substance", "setting": "[1]; Gene No. 6026, Rn.167685, group (C)", "value": "−"}, {"measurement": "Behavior of gene caused by administration of chemical substance", "setting": "[1]; Gene No. 6182, Rn.5834, group (A)", "value": "+"}, {"measurement": "Behavior of gene caused by administration of chemical substance", "setting": "[1]; Gene No. 6303, Rn.123063, group (C)", "value": "−"}, {"measurement": "Behavior of gene caused by administration of chemical substance", "setting": "[1]; Gene No. 6620, Rn.120914, group (C)", "value": "−"}, {"measurement": "Behavior of gene caused by administration of chemical substance", "setting": "[1]; Gene No. 6742, Rn.9779, group (C)", "value": "−"}, {"measurement": "Mutagenicity by Ames test", "setting": "[2]; classification M+/M−", "value": "M+"}, {"measurement": "Liver carcinogenicity", "setting": "liver; classification Cr+/Cr−", "value": "Cr−"}]}, {"smiles": "CCOC(=O)C(C)(C)Oc1ccc(Cl)cc1", "note": "[TS001, Clofibrate]", "values": [{"measurement": "Carcinogenicity", "setting": "rodent; classification of the substance (C+/C−)", "value": "C+"}, {"measurement": "Behavior of gene caused by administration of chemical substance, Gene No. 4846", "setting": "[1]; gene group (A), Unigene No. Rn.144554, mRNA vs vehicle control group", "value": "−"}, {"measurement": "Behavior of gene caused by administration of chemical substance, Gene No. 2026", "setting": "[1]; [3]", "value": "+"}, {"measurement": "Behavior of gene caused by administration of chemical substance, Gene No. 4218", "setting": "[1]; [3]", "value": "−"}, {"measurement": "Behavior of gene caused by administration of chemical substance, Gene No. 6182", "setting": "[1]; gene group (A), Unigene No. Rn.5834, mRNA vs vehicle control group", "value": "+"}, {"measurement": "Behavior of gene caused by administration of chemical substance, Gene No. 5600", "setting": "[1]; gene group (A), Unigene No. Rn.9836, mRNA vs vehicle control group", "value": "−"}, {"measurement": "Behavior of gene caused by administration of chemical substance, Gene No. 1494", "setting": "[1]; gene group (B), Unigene No. Rn.1430, mRNA vs vehicle control group", "value": "+"}, {"measurement": "Behavior of gene caused by administration of chemical substance, Gene No. 2045", "setting": "[1]; gene group (B), Unigene No. Rn.19329, mRNA vs vehicle control group", "value": "+"}, {"measurement": "Behavior of gene caused by administration of chemical substance, Gene No. 2203", "setting": "[1]; gene group (B), Unigene No. Rn.21240, mRNA vs vehicle control group", "value": "+"}, {"measurement": "Behavior of gene caused by administration of chemical substance, Gene No. 533", "setting": "[1]; gene group (C), Unigene No. Rn.106184, mRNA vs vehicle control group", "value": "+"}, {"measurement": "Behavior of gene caused by administration of chemical substance, Gene No. 725", "setting": "[1]; gene group (C), Unigene No. Rn.108075, mRNA vs vehicle control group", "value": "+"}, {"measurement": "Behavior of gene caused by administration of chemical substance, Gene No. 1163", "setting": "[1]; gene group (C), Unigene No. Rn.11766, mRNA vs vehicle control group", "value": "+"}, {"measurement": "Behavior of gene caused by administration of chemical substance, Gene No. 4973", "setting": "[1]; gene group (C), Unigene No. Rn.118529, mRNA vs vehicle control group", "value": "+"}, {"measurement": "Behavior of gene caused by administration of chemical substance, Gene No. 4095", "setting": "[1]; gene group (C), Unigene No. Rn.119024, mRNA vs vehicle control group", "value": "+"}, {"measurement": "Behavior of gene caused by administration of chemical substance, Gene No. 1334", "setting": "[1]; [4]", "value": "−"}, {"measurement": "Behavior of gene caused by administration of chemical substance, Gene No. 6620", "setting": "[1]; [4]", "value": "−"}, {"measurement": "Behavior of gene caused by administration of chemical substance, Gene No. 6303", "setting": "[1]; gene group (C), Unigene No. Rn.123063, mRNA vs vehicle control group", "value": "−"}, {"measurement": "Behavior of gene caused by administration of chemical substance, Gene No. 5878", "setting": "[1]; gene group (C), Unigene No. Rn.143213, mRNA vs vehicle control group", "value": "−"}, {"measurement": "Behavior of gene caused by administration of chemical substance, Gene No. 1131", "setting": "[1]; gene group (C), Unigene No. Rn.144946, mRNA vs vehicle control group", "value": "−"}, {"measurement": "Behavior of gene caused by administration of chemical substance, Gene No. 1562", "setting": "[1]; gene group (C), Unigene No. Rn.14744, mRNA vs vehicle control group", "value": "−"}, {"measurement": "Behavior of gene caused by administration of chemical substance, Gene No. 1741", "setting": "[1]; gene group (C), Unigene No. Rn.1647, mRNA vs vehicle control group", "value": "−"}, {"measurement": "Behavior of gene caused by administration of chemical substance, Gene No. 893", "setting": "[1]; gene group (C), Unigene No. Rn.164817, mRNA vs vehicle control group", "value": "+"}, {"measurement": "Behavior of gene caused by administration of chemical substance, Gene No. 6026", "setting": "[1]; gene group (C), Unigene No. Rn.167685, mRNA vs vehicle control group", "value": "−"}, {"measurement": "Behavior of gene caused by administration of chemical substance, Gene No. 154", "setting": "[1]; gene group (C), Unigene No. Rn.185941, mRNA vs vehicle control group", "value": "−"}, {"measurement": "Behavior of gene caused by administration of chemical substance, Gene No. 1993", "setting": "[1]; gene group (C), Unigene No. Rn.18728, mRNA vs vehicle control group", "value": "−"}, {"measurement": "Behavior of gene caused by administration of chemical substance, Gene No. 813", "setting": "[1]; gene group (C), Unigene No. Rn.201760, mRNA vs vehicle control group", "value": "+"}, {"measurement": "Behavior of gene caused by administration of chemical substance, Gene No. 2494", "setting": "[1]; gene group (C), Unigene No. Rn.23969, mRNA vs vehicle control group", "value": "−"}, {"measurement": "Behavior of gene caused by administration of chemical substance, Gene No. 2546", "setting": "[1]; gene group (C), Unigene No. Rn.24561, mRNA vs vehicle control group", "value": "−"}, {"measurement": "Behavior of gene caused by administration of chemical substance, Gene No. 3776", "setting": "[1]; gene group (C), Unigene No. Rn.43232, mRNA vs vehicle control group", "value": "−"}, {"measurement": "Behavior of gene caused by administration of chemical substance, Gene No. 3929", "setting": "[1]; gene group (C), Unigene No. Rn.4620, mRNA vs vehicle control group", "value": "−"}, {"measurement": "Behavior of gene caused by administration of chemical substance, Gene No. 1119", "setting": "[1]; gene group (C), Unigene No. Rn.9757, mRNA vs vehicle control group", "value": "−"}, {"measurement": "Behavior of gene caused by administration of chemical substance, Gene No. 6742", "setting": "[1]; gene group (C), Unigene No. Rn.9779, mRNA vs vehicle control group", "value": "+"}, {"measurement": "Behavior of gene caused by administration of chemical substance, Gene No. 5634", "setting": "[1]; gene group (C), Unigene No. Rn.9862, mRNA vs vehicle control group", "value": "−"}, {"measurement": "Behavior of gene caused by administration of chemical substance, Gene No. 5726", "setting": "[1]; gene group (D), Unigene No. Rn.9939, mRNA vs vehicle control group", "value": "−"}, {"measurement": "Mutagenicity by Ames test", "setting": "[2]; classification of the substance (M+/M−)", "value": "M−"}, {"measurement": "Liver carcinogenicity", "setting": "liver; classification of the substance (Cr+/Cr−)", "value": "Cr+"}]}]}
